# Results published in PubChem BioAssay AID2060604 (Molecular Pharmacology Branch, DTP, NCI, 2025).
# Test system: 379773-124-R-J2-PDC complex spheroids, viability % test/control
# Assay: Anticancer human tumor 379773-124-R-J2-PDC patient-derived endometrial carcinoma cell line growth inhibition [CLK]
# Conditions: for IC50: curve of first compound; for viability, T/C: stronger effect = lower value
# How it was run: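 Patient-derived tumor cells grown as complex spheroids with HUVEC endothelial cells and mesenchymal stem cells, treated with drug combinations. Concentrations descend in half-log steps from near clinical Cmax, or from 10 microM if Cmax unknown.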
# [1] = second compound 0.0316 µM, first compound 0.0316 µM
# [2] = second compound 0.0316 µM, first compound 0.1 µM
# [3] = second compound 0.1 µM, first compound 0.0316 µM
# [4] = second compound 0.1 µM, first compound 0.1 µM
# [5] = second compound 0.316 µM, first compound 0.0316 µM
# [6] = second compound 0.316 µM, first compound 0.1 µM
# [7] = second compound 1 µM, first compound 0.0316 µM
# [8] = second compound 1 µM, first compound 0.1 µM
# [9] = second compound 3.16 µM, first compound 0.0316 µM
# [10] = second compound 3.16 µM, first compound 0.1 µM
# [11] = second compound 10 µM, first compound 0.0316 µM
# [12] = second compound 10 µM, first compound 0.1 µM
# [13] = second compound 0.0316 µM, first compound 0.316 µM
# [14] = second compound 0.0316 µM, first compound 1 µM
# [15] = second compound 0.0316 µM, first compound 3.16 µM
# [16] = second compound 0.0316 µM, first compound 10 µM
# [17] = second compound 0.1 µM, first compound 0.316 µM
# [18] = second compound 0.1 µM, first compound 1 µM
# [19] = second compound 0.1 µM, first compound 3.16 µM
# [20] = second compound 0.1 µM, first compound 10 µM
# [21] = second compound 0.316 µM, first compound 0.316 µM
# [22] = second compound 0.316 µM, first compound 1 µM
# [23] = second compound 0.316 µM, first compound 3.16 µM
# [24] = second compound 0.316 µM, first compound 10 µM
# [25] = second compound 1 µM, first compound 0.316 µM
# [26] = second compound 1 µM, first compound 1 µM
# [27] = second compound 1 µM, first compound 3.16 µM
# [28] = second compound 1 µM, first compound 10 µM
# [29] = second compound 3.16 µM, first compound 0.316 µM
# [30] = second compound 3.16 µM, first compound 1 µM
# [31] = second compound 3.16 µM, first compound 3.16 µM
# [32] = second compound 3.16 µM, first compound 10 µM
# [33] = second compound 10 µM, first compound 0.316 µM
# [34] = second compound 10 µM, first compound 1 µM
# [35] = second compound 10 µM, first compound 3.16 µM
# [36] = second compound 10 µM, first compound 10 µM
# 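Further: compound exposure lasted seven days before the viability readout.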
# 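Wherever viability, T/C is given: 100% = DMSO vehicle control wells.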
structure (smiles),measurement,setting,value
Cn1ncnc1[C@H]1c2n[nH]c(=O)c3cc(F)cc(c23)N[C@@H]1c1ccc(F)cc1 + CN1CCN(c2cc(C(=O)Nc3cc4cc(-c5cnn(C)c5)ccc4cn3)ccn2)CC1,IC50,second compound 0.0316 µM,42.6 nM
same,IC50,second compound 0.1 µM,22.2 nM
same,IC50,second compound 0.316 µM,< 0.316 nM
same,IC50,second compound 1 µM,< 0.316 nM
same,IC50,second compound 3.16 µM,< 0.316 nM
same,IC50,second compound 10 µM,< 0.316 nM
same,"viability, T/C","second compound 0.0316 µM, first compound 0.000316 µM",87.8%
same,"viability, T/C","second compound 0.0316 µM, first compound 0.001 µM",96.2%
same,"viability, T/C","second compound 0.0316 µM, first compound 0.00316 µM",80.3%
same,"viability, T/C","second compound 0.0316 µM, first compound 0.01 µM",92.6%
same,"viability, T/C",[1],55.6%
same,"viability, T/C",[2],34%
same,"viability, T/C","second compound 0.1 µM, first compound 0.000316 µM",87%
same,"viability, T/C","second compound 0.1 µM, first compound 0.001 µM",82.6%
same,"viability, T/C","second compound 0.1 µM, first compound 0.00316 µM",79.1%
same,"viability, T/C","second compound 0.1 µM, first compound 0.01 µM",64.1%
same,"viability, T/C",[3],43.6%
same,"viability, T/C",[4],27%
same,"viability, T/C","second compound 0.316 µM, first compound 0.000316 µM",24.1%
same,"viability, T/C","second compound 0.316 µM, first compound 0.001 µM",29.2%
same,"viability, T/C","second compound 0.316 µM, first compound 0.00316 µM",17.9%
same,"viability, T/C","second compound 0.316 µM, first compound 0.01 µM",21.4%
same,"viability, T/C",[5],15.2%
same,"viability, T/C",[6],12.3%
same,"viability, T/C","second compound 1 µM, first compound 0.000316 µM",0.11%
same,"viability, T/C","second compound 1 µM, first compound 0.001 µM",0.8%
same,"viability, T/C","second compound 1 µM, first compound 0.00316 µM",0.33%
same,"viability, T/C","second compound 1 µM, first compound 0.01 µM",0.19%
same,"viability, T/C",[7],0.06%
same,"viability, T/C",[8],0.07%
same,"viability, T/C","second compound 3.16 µM, first compound 0.000316 µM",1.37%
same,"viability, T/C","second compound 3.16 µM, first compound 0.001 µM",0.24%
same,"viability, T/C","second compound 3.16 µM, first compound 0.00316 µM",0.23%
same,"viability, T/C","second compound 3.16 µM, first compound 0.01 µM",0.07%
same,"viability, T/C",[9],1.63%
same,"viability, T/C",[10],0.08%
same,"viability, T/C","second compound 10 µM, first compound 0.000316 µM",1.25%
same,"viability, T/C","second compound 10 µM, first compound 0.001 µM",0.1%
same,"viability, T/C","second compound 10 µM, first compound 0.00316 µM",0.49%
same,"viability, T/C","second compound 10 µM, first compound 0.01 µM",0.52%
same,"viability, T/C",[11],0.29%
same,"viability, T/C",[12],0.13%
Nc1ccn(C2OC(CO)C(O)C2(F)F)c(=O)n1 (stereo unspecified) + CN1CCN(c2cc(C(=O)Nc3cc4cc(-c5cnn(C)c5)ccc4cn3)ccn2)CC1,IC50,second compound 0.0316 µM,< 31.6 nM
same,IC50,second compound 0.1 µM,< 31.6 nM
same,IC50,second compound 0.316 µM,< 31.6 nM
same,IC50,second compound 1 µM,< 31.6 nM
same,IC50,second compound 3.16 µM,< 31.6 nM
same,IC50,second compound 10 µM,< 31.6 nM
same,"viability, T/C",[1],10.9%
same,"viability, T/C",[2],5.93%
same,"viability, T/C",[13],5%
same,"viability, T/C",[14],6.45%
same,"viability, T/C",[15],6.59%
same,"viability, T/C",[16],3.28%
same,"viability, T/C",[3],10.4%
same,"viability, T/C",[4],5.09%
same,"viability, T/C",[17],4.66%
same,"viability, T/C",[18],5.3%
same,"viability, T/C",[19],4.72%
same,"viability, T/C",[20],1.97%
same,"viability, T/C",[5],7.96%
same,"viability, T/C",[6],4.03%
same,"viability, T/C",[21],2.64%
same,"viability, T/C",[22],2.49%
same,"viability, T/C",[23],1.51%
same,"viability, T/C",[24],0.83%
same,"viability, T/C",[7],0.1%
same,"viability, T/C",[8],0.12%
same,"viability, T/C",[25],0.11%
same,"viability, T/C",[26],0.05%
same,"viability, T/C",[27],1.02%
same,"viability, T/C",[28],0.05%
same,"viability, T/C",[9],0.08%
same,"viability, T/C",[10],0.11%
same,"viability, T/C",[29],0.12%
same,"viability, T/C",[30],0.07%
same,"viability, T/C",[31],0.82%
same,"viability, T/C",[32],0.09%
same,"viability, T/C",[11],0.18%
same,"viability, T/C",[12],1.56%
same,"viability, T/C",[33],0.87%
same,"viability, T/C",[34],1.76%
same,"viability, T/C",[35],0.56%
same,"viability, T/C",[36],0.13%
O=c1[nH]cc(F)c(=O)[nH]1 + CN1CCN(c2cc(C(=O)Nc3cc4cc(-c5cnn(C)c5)ccc4cn3)ccn2)CC1,IC50,second compound 0.0316 µM,> 10000 nM
same,IC50,second compound 0.1 µM,> 10000 nM
same,IC50,second compound 0.316 µM,< 31.6 nM
same,IC50,second compound 1 µM,< 31.6 nM
same,IC50,second compound 3.16 µM,< 31.6 nM
same,IC50,second compound 10 µM,< 31.6 nM
same,"viability, T/C",[1],92.2%
same,"viability, T/C",[2],86.8%
same,"viability, T/C",[13],93.4%
same,"viability, T/C",[14],82.3%
same,"viability, T/C",[15],74.5%
same,"viability, T/C",[16],56.2%
same,"viability, T/C",[3],82%
same,"viability, T/C",[4],82.2%
same,"viability, T/C",[17],78.4%
same,"viability, T/C",[18],67.4%
same,"viability, T/C",[19],70.6%
same,"viability, T/C",[20],54.1%
same,"viability, T/C",[5],24.9%
same,"viability, T/C",[6],23.4%
same,"viability, T/C",[21],28.6%
same,"viability, T/C",[22],22.5%
same,"viability, T/C",[23],19.1%
same,"viability, T/C",[24],14.8%
same,"viability, T/C",[7],0.12%
same,"viability, T/C",[8],0.11%
same,"viability, T/C",[25],0.1%
same,"viability, T/C",[26],0.08%
same,"viability, T/C",[27],1.26%
same,"viability, T/C",[28],0.11%
same,"viability, T/C",[9],0.39%
same,"viability, T/C",[10],1.04%
same,"viability, T/C",[29],0.08%
same,"viability, T/C",[30],1.36%
same,"viability, T/C",[31],0.05%
same,"viability, T/C",[32],0.94%
same,"viability, T/C",[11],1.85%
same,"viability, T/C",[12],1.37%
same,"viability, T/C",[33],0.12%
same,"viability, T/C",[34],0.11%
same,"viability, T/C",[35],0.1%
same,"viability, T/C",[36],0.68%
